# Results: patent US10398142B2, “Polycationic amphiphiles as antimicrobial agents” (priority 2013, dated 2019)
# Like-named read-outs stand apart in the source and are kept apart here.
# Legend:
# [1] = system: Escherichia coli (MC4100); assay: Minimum inhibitory concentration (MIC), broth microdilution; assay type: cell-based; details: read-out: MIC E. coli
# Protocol: (§1) The term “minimum inhibitory concentration (MIC)” means the lowest concentration of an antimicrobial agent that will inhibit the visible growth of a microorganism after overnight incubation. MIC values against bacteria, for example, the Gram-positive Staphylococcus aureus and Enterococcus faecalis and the Gram-negative Escherichia coli and Pseudomonas aeruginosa were determined by standard methods.
# (§2) With nearly three-dozen amphiphiles varying in structure and cationic nature synthesized, minimum inhibitory concentration (MIC) values against the Gram-positive Staphylococcus aureus and Enterococcus faecalis and the Gram-negative Escherichia coli and Pseudomonas aeruginosa were determined by standard methods. […] The commercially available antibacterial agent benzalkonium chloride (benzyldimethyldodecylammonium chloride, Bn,12) was tested for comparison. The broth microdilution for determining MIC values was performed as previously reported.
# (§3) Different biological assays were performed. […] All cultures, with the exception of E. faecalis, were grown with shaking at 250 rpm.
# (§4) Minimum inhibitory concentration (MIC) values against bacteria were measured using standard method. Compounds were serially diluted two-fold from an aqueous stock solution to yield twelve test concentrations. Overnight S. aureus, E. faecalis, E. coli, P. aeruginosa, CA-MRSA, and HA-MRSA cultures diluted to ca. 10^6 cfu/mL in Mueller-Hinton media and 100 μL were inoculated into each well of a U-bottom 96-well plate (BD Biosciences, BD351177) containing 100 μL of compound solution. Plates were incubated statically at 37° C. for 72 hours upon which time wells were evaluated visually for bacterial growth. The MIC was determined as the lowest concentration of compound resulting in no bacterial growth visible to the naked eye, based on the majority of three independent experiments. Positive and negative aqueous and media controls were conducted for each trial.
# [2] = system: Enterococcus faecalis (OG1RF); assay: as above; assay type: cell-based; details: read-out: MIC E. faecalis
# Protocol: as §1, §2, §3, §4
# [3] = system: Staphylococcus aureus MSSA (SH1000); assay: as above; assay type: cell-based; details: read-out: MIC S. aureus
# Protocol: as §1, §2, §3, §4
# [4] = system: Pseudomonas aeruginosa (PAO1); assay: as above; assay type: cell-based
# Protocol: as §1, §2, §3, §4
# E. faecalis biofilms = assay: Minimum biofilm eradication concentration (MBEC), regrowth assay; assay type: cell-based, Enterococcus faecalis; details: for MBEC E. faecalis: Table 2, pre-established biofilm, ± values varied between 50 and 100 μM for the six trials; for eradication of E. faecalis biofilms (in words): at the concentrations tested
# Description: (§5) A regrowth assay was used to establish the MBEC of a compound to evaluate the antibiofilm activity. See also H. Ceri, M. Olson, D. Morck, D. Storey, R. Read, A. Buret, B. Olson, Methods Enzymol. 2001, 337, 377.
# (§6) Encouraged by the potency of the QACs against planktonic bacterial cells, the inventors then evaluated the efficacy of compound (12,2,12) against Staphylococcus aureus and Enterococcus faecalis biofilms. […] To both accurately evaluate the antibiofilm activity, a regrowth assay was utilized to establish the minimum biofilm eradication concentration (MBEC) of each compound.
# (§7) Different biological assays were performed. For all biological assays, laboratory strains of methicillin-susceptible Staphylococcus aureus MSSA (SH1000), Enterococcus faecalis (OG1RF), Escherichia coli (MC4100), Pseudomonas aeruginosa (PAO1), community-acquired methicillin-resistant Staphylococcus aureus CA-MRSA (USA300-0114), and hospital-acquired methicillin-resistant Staphylococcus aureus HA-MRSA (ATCC 33591) were grown at 37° C. overnight from freezer stocks in 10 mL of the media indicated for each assay. All cultures, with the exception of E. faecalis, were grown with shaking at 250 rpm.
# (§8) Minimum biofilm eradication concentration (MBEC) was also measured. To each well of a flat-bottomed 96-well plate (Corning 3370), 8 μL of overnight bacterial culture was brought to a volume of 200 μL with fresh media (BHI for S. aureus and MRSA, Todd Hewitt (TH) for E. faecalis). Plates were incubated statically for 24 hours at 37° C. to establish biofilms. After 24 hours, the wells were carefully emptied by inverting the plate and gently shaking. A pre-mixed solution of media and aqueous compound stock solution was added to each well and plates were incubated at 37° C. 16 hours after pre-established biofilms were treated with compound, the media from each well was removed, biofilms were washed three times with 200 μL PBS to remove planktonic cells, and biofilms were incubated overnight at 37° C. in 200 μL of fresh media to allow any viable cells to continue growing. The wells were then vigorously pipetted to resuspend the biofilm cells and the OD at 595 nm was measured using a plate reader (POLARstar Omega, BMG Labtech). Biofilms reaching a final OD of less than 0.1 were considered eradicated and the lowest concentration of antibiotic corresponded to the MBEC. Four replicates were completed for each concentration of compound as well as positive and negative controls.
# [5] = system: S. aureus (MSSA, SH1000) biofilms; assay: as above; assay type: cell-based, Staphylococcus aureus; details: for MBEC S. aureus: Table 2, pre-established biofilm, ± values varied between 50 and 100 μM for the six trials; for eradication of S. aureus biofilms (in words): at the concentrations tested
# Description: as §5, §6, §7, §8
# [6] = Table 1, read-out: MIC P. aeruginosa
# [7] = Table 3, read-out: MIC P. aeruginosa
# [8] = Pseudomonas aeruginosa, PAO1, read-out: MIC P. aeruginosa
Structure (SMILES),MIC ([1]; Table 3),MIC ([2]; Table 3),MIC ([3]; Table 3),"MIC [4, 7]",also measured
"C[N+](C)(C)CC[N+](C)(C)C [1,2,1]",–,–,–,–,"MIC ([1]; Table 1): >500 µM; MIC ([2]; Table 1): >500 µM; MIC ([3]; Table 1): >500 µM; MIC [4, 6]: >500 µM; MBEC E. faecalis (E. faecalis biofilms): >200 µM; eradication of E. faecalis biofilms (in words) (E. faecalis biofilms): unable to eradicate biofilms; MBEC S. aureus [5]: >200 µM; eradication of S. aureus biofilms (in words) [5]: unable to eradicate biofilms"
"C[N+](C)(C)CCCCC[N+](C)(C)C [1,5,1]",–,–,–,–,"MIC ([1]; Table 1): >500 µM; MIC ([2]; Table 1): >500 µM; MIC ([3]; Table 1): >500 µM; MIC [4, 6]: >500 µM; MBEC E. faecalis (E. faecalis biofilms): >200 µM; eradication of E. faecalis biofilms (in words) (E. faecalis biofilms): unable to eradicate biofilms; MBEC S. aureus [5]: >200 µM; eradication of S. aureus biofilms (in words) [5]: unable to eradicate biofilms"
"CCCCCCCCCC[N+](C)(C)CC[N+](C)(C)CC[N+](C)(C)CCCCCCCCCC.[Br-].[Br-].[I-] [10, 2, 1, 2, 10]",8 µM,8 µM,2 µM,63 µM,–
"C=CC[N+](C)(CC[N+](C)(C)CCCCCCCCCC)CC[N+](C)(C)CCCCCCCCCC.[Br-].[Br-].[Br-] [10, 2, 3A, 2, 10]",2 µM,4 µM,2 µM,63 µM,–
"CCCCCCCCCCC[N+](C)(C)CCN(C)CC[N+](C)(C)CCCCCCCCCCC.[Br-].[Br-] [11, 2, 0, 2, 11]",2 µM,2 µM,2 µM,8 µM,–
"CCCCCCCCCCC[N+](C)(C)CC[N+](C)(C)CC[N+](C)(C)CCCCCCCCCCC.[Br-].[Br-].[I-] [11, 2, 1, 2, 11]",4 µM,2 µM,2 µM,8 µM,–
"C=CC[N+](C)(CC[N+](C)(C)CCCCCCCCCCC)CC[N+](C)(C)CCCCCCCCCCC.[Br-].[Br-].[Br-] [11, 2, 3A, 2, 11]",2 µM,2 µM,1 µM,16 µM,–
"CCCCCCCCCCCC[N+](C)(C)CCCCCCCCCCCC.[Br-] [12,12]",–,–,–,–,"MIC ([1]; Table 1): 8 µM; MIC ([2]; Table 1): 1 µM; MIC ([3]; Table 1): 1 µM; MIC [4, 6]: 32 µM; MBEC E. faecalis (E. faecalis biofilms): 200 µM; MBEC S. aureus [5]: >200 µM"
"CCCCCCCCCCCCCC[N+](C)(C)CC[N+](C)(C)CC[N+](C)(C)CCCCCCCCCCCCCC.[Br-].[Br-].[I-] [14, 2, 1, 2, 14]",2 µM,1 µM,1 µM,8 µM,–
"C=CC[N+](C)(CC[N+](C)(C)CCCCCCCCCCCCCC)CC[N+](C)(C)CCCCCCCCCCCCCC.[Br-].[Br-].[Br-] [14, 2, 3A, 2, 14]",2 µM,2 µM,2 µM,8 µM,–
"CCCCCCCCCCCCCCCC[N+](C)(C)CCN(C)CC[N+](C)(C)CCCCCCCCCCCCCCCC.[Br-].[Br-] [16, 2, 0, 2, 16]",16 µM,2 µM,4 µM,32 µM,–
"C=CC[N+](C)(CC[N+](C)(C)CCCCCCCCCCCCCCCC)CC[N+](C)(C)CCCCCCCCCCCCCCCC.[Br-].[Br-].[Br-] [16, 2, 3A, 2, 16]",8 µM,4 µM,4 µM,16 µM,–
"CCCCCCCCCCCCCC[N+](C)(C)CCN(C)CCN(C)CC[N+](C)(C)CCCCCCCCCCCCCC.[Br-].[Br-] [N4-14,0,0, 14]",2 µM,1 µM,2 µM,16 µM,–
"NCCCNCCCN [Norspermidine, reference compound]",–,–,–,–,"MIC ([1]; Escherichia coli): > 500 µM; MIC ([2]; Enterococcus faecalis): > 500 µM; MIC ([3]; Staphylococcus aureus, MSSA): > 500 µM; MIC [4, 8]: > 500 µM; MBEC E. faecalis (E. faecalis biofilms): >200 µM; MBEC S. aureus [5]: >200 µM"
"CCCCCCCCCCC[n+]1ccc(-c2cc[n+](CCCCCCCCCCC)cc2)cc1 [PQ-11,11]",–,–,–,–,"MIC ([1]; Escherichia coli): 1 µM; MIC ([2]; Enterococcus faecalis): 1 µM; MIC ([3]; Staphylococcus aureus, MSSA): 1 µM; MIC [4, 8]: 4 µM; MBEC E. faecalis (E. faecalis biofilms): 50 µM; MBEC S. aureus [5]: 50 µM"

# Now from value to molecule, other results behind:
MIC ([1]; Table 3),MIC ([2]; Table 3),MIC ([3]; Table 3),"MIC [4, 7]",Structure (SMILES),also measured
8 µM,8 µM,2 µM,63 µM,"CCCCCCCCCC[N+](C)(C)CCN(C)CC[N+](C)(C)CCCCCCCCCC.[Br-].[Br-] [10, 2, 0, 2, 10]",–
8 µM,4 µM,2 µM,63 µM,"CCCCCCCCCC[N+](C)(C)CCCCC[N+](C)(C)CCCCCCCCCC.[Br-].[Br-] [10, 5, 10]",–
2 µM,1 µM,1 µM,8 µM,"CCCCCCCCCCCC[N+](C)(C)CCCCCCC[N+](C)(C)CCCCCCCCCCCC.[Br-].[Br-] [12, 7, 12]",–
4 µM,1 µM,2 µM,16 µM,"CCCCCCCCCCCCCC[N+](C)(C)CCN(C)CC[N+](C)(C)CCCCCCCCCCCCCC.[Br-].[Br-] [14, 2, 0, 2, 14]",–
4 µM,1 µM,1 µM,16 µM,"CCCCCCCCCCCCCC[N+](C)(C)CCCCC[N+](C)(C)CCCCCCCCCCCCCC.[Br-].[Br-] [14, 5, 14]",–
8 µM,8 µM,8 µM,32 µM,"CCCCCCCCCCCC[N+](C)(C)CCN(C)CCN(C)CCN(C)C.[Br-] [N4-12,0,0, 0]",–
32 µM,16 µM,16 µM,125 µM,"CCCCCCCCCCCCCC[N+](C)(C)CCN(C)CCN(C)CCN(C)C.[Br-] [N4-14,0,0, 0]",–
2 µM,1 µM,1 µM,8 µM,"CCCCCCCCCCCCCC[N+](C)(C)CCN(C)CCN(C)CC[N+](C)(C)CCCCCCCCCCCC.[Br-].[Br-] [N4-14,0,0, 12]",–
